The assay addresses T1, Toll-like receptor 7 (Homo sapiens, UniProt Q9NYK1).
T1 sequence (Q9NYK1 whole entry): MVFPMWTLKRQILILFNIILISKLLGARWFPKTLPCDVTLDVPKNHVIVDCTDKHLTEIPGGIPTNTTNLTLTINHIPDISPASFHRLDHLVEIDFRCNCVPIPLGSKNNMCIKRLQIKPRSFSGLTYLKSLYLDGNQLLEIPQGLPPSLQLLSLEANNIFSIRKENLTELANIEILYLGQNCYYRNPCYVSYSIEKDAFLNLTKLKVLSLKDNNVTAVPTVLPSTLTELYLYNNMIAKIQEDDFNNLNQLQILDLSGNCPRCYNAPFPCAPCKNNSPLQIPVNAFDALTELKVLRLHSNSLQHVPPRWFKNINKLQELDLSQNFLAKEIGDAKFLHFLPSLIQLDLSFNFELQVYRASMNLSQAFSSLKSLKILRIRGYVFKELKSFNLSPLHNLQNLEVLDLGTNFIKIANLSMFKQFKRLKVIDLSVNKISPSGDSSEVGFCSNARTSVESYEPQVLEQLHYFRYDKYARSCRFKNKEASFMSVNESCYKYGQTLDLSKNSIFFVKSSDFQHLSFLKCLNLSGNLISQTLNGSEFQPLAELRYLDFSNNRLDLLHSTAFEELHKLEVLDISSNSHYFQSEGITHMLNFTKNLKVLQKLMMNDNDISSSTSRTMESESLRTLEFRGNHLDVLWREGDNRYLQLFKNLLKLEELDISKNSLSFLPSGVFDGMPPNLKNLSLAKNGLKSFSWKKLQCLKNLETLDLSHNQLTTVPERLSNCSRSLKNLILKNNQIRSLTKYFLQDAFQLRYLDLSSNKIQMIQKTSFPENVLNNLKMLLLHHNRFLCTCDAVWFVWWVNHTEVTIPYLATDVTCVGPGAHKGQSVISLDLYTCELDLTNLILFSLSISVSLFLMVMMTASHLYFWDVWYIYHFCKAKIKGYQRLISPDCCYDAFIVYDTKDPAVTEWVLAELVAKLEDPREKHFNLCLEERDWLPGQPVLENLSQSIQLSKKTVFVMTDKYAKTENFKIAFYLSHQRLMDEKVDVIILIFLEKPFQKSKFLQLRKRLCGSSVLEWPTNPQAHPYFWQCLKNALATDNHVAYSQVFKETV
In words: HEK-Blue™ TLR7 cells were added to each well of a 384-well tissue-culture plate (15,000 cells per well) and incubated 16-18 h at 37° C., 5% CO2. Compounds (100 nl) were dispensed into wells containing the HEK-Blue™ TLR cells and the treated cells were incubated at 37° C., 5% CO2. After 18 h treatment ten microliters of freshly-prepared Quanti-Blue™ reagent (Invivogen) was added to each well, incubated for 30 min (37° C., 5% CO2) and SEAP levels measured using an Envision plate reader (OD=620 nm).
Broadly, the EC50 is the midpoint of the concentration-response curve. The low end stands for a more potent agent, the high end for a less potent agent. Consider `CCCCOc1nc(N)c2nc(O)n(Cc3cccc(Oc4cccc(CNC5CCC5)c4)c3)c2n1`, for which the EC50 amounted to 435 nM.

Take `CCCCOc1nc(N)c2nc(O)n(Cc3ccc(Oc4ccc(CN5CCC5)cc4)c(F)c3)c2n1`: the EC50 worked out at 1.12 nM.

Take `CCCCOc1nc(N)c2nc(O)n(Cc3ccc(Oc4ccc(CNCC(C)C)nc4)nc3)c2n1`: the concentration for a half-maximal effect (EC50) turned out to be 2.22 nM.

`CCCCOc1nc(N)c2nc(O)n(Cc3ccc(Oc4cccc(CNCC(C)C)n4)cc3)c2n1` came in with a concentration giving a half-maximal response (EC50) of 2.4 nM.

Consider `CCCCOc1nc(N)c2nc(O)n(Cc3ccc(Oc4ccc(CNCC(C)C)cc4)c(F)c3)c2n1`, for which the 50% effective concentration (EC50) turned out to be 0.45 nM.

For `CCCCOc1nc(N)c2nc(O)n(Cc3ccc(Nc4ccc(CN5CCCC5)cc4)nc3)c2n1`, the midpoint of the response, the EC50, lay at 1.56 nM.

As for `CCCCOc1nc(N)c2nc(O)n(Cc3ccc(Oc4ccc(CO)cc4)nc3)c2n1`, the EC50 turned out to be 12 nM.

For `CCCCOc1nc(N)c2nc(O)n(Cc3ccc(Oc4ccc(CNC5CCOCC5)nc4)nc3)c2n1`, the response was half-maximal at 1.12 nM (EC50).

Regarding `CCCCOc1nc(N)c2nc(O)n(Cc3ccc(Oc4ccc(CNC)cc4)nc3)c2n1`, the EC50 was determined as 1.2 nM.

On to `CCCCOc1nc(N)c2nc(O)n(Cc3ccc(Oc4ccc(CNC5CCOCC5)cc4)c(F)c3)c2n1`, for which a half-maximal response (EC50) required 1.2 nM.

For `CCCCOc1nc(N)c2nc(O)n(Cc3ccc(Oc4ccc(CNCCC#N)cc4)nc3)c2n1`, the EC50 turned out to be 0.35 nM.

Consider `CCCCOc1nc(N)c2nc(O)n(Cc3ccc(Oc4ccc(CNCCOC)cc4)c(F)c3)c2n1`, for which a half-maximal response (EC50) required 1.14 nM.

The compound `CCCCOc1nc(N)c2nc(O)n(Cc3ccc(Oc4cccc(CNCCC#N)n4)cc3)c2n1` returned a concentration for a half-maximal effect (EC50) of 3.57 nM.

For the compound `CCCCOc1nc(N)c2nc(O)n(Cc3ccc(Oc4ccc(CNCCO)nc4)nc3)c2n1`, a half-maximal effect (EC50) was put at 1.6 nM.

Regarding `CCCCOc1nc(N)c2nc(O)n(Cc3ccc(Oc4ccc(CNC5CCC5)cc4)nc3)c2n1`, the concentration giving a half-maximal response (EC50) turned out to be 0.91 nM.

Take `CCCCOc1nc(N)c2nc(O)n(Cc3ccc(Oc4ccc(CN5CCN(C)CC5)nc4)nc3)c2n1`: the EC50 came out at 1.77 nM.

As to `CCCCOc1nc(N)c2nc(O)n(Cc3ccc(Oc4ccc(CNCC(F)F)cc4)nc3)c2n1`, the concentration for a half-maximal effect (EC50) was 2.9 nM.

In turn, `CCCCOc1nc(N)c2nc(O)n(Cc3cccc(Oc4cccc(CNC)c4)c3)c2n1` displayed an EC50 of 455 nM.

As to `CCCCOc1nc(N)c2nc(O)n(Cc3ccc(Oc4ccc(CNCC(F)F)nc4)nc3)c2n1`, the EC50 was found to be 1.8 nM.

Turning to `CCCCOc1nc(N)c2nc(O)n(Cc3cccc(Oc4cccc(CNCCC#N)c4)c3)c2n1`, the EC50 was 279 nM.

`CCCCOc1nc(N)c2nc(O)n(Cc3ccc(Oc4ccc(CNCc5ccccc5)cc4)cc3)c2n1` had an EC50 of 13 nM.

In the case of `CCCCOc1nc(N)c2nc(O)n(Cc3cccc(Oc4cccc(CN5CCNCC5)c4)c3)c2n1`, the concentration for a half-maximal effect (EC50) was 942 nM.

`CCCCOc1nc(N)c2nc(O)n(Cc3cccc(Oc4cccc(CNCCS(C)(=O)=O)c4)c3)c2n1`: the half-maximal effective concentration (EC50) stood at 154 nM.

`CCCCOc1nc(N)c2nc(O)n(Cc3ccc(Nc4ccc(CNCC(F)F)cc4)nc3)c2n1`: the concentration for a half-maximal effect (EC50) amounted to 7.46 nM.

Take `CCCCOc1nc(N)c2nc(O)n(Cc3ccc(Oc4ccc(CN5CCN(C)CC5)cc4)c(F)c3)c2n1`: the response was half-maximal at 2.9 nM (EC50).

`CCCCOc1nc(N)c2nc(O)n(Cc3ccc(Oc4ccc(CN5CCOCC5)nc4)nc3)c2n1` displayed an EC50 of 0.89 nM.

`CCCCOc1nc(N)c2nc(O)n(Cc3ccc(Nc4ccc(CNCCO)cc4)nc3)c2n1` registered an EC50 of 5.8 nM.

Take `CCCCOc1nc(N)c2nc(O)n(Cc3ccc(Oc4ccc(CNC5COC5)cc4)nc3)c2n1`: the half-maximal effective concentration (EC50) amounted to 0.7 nM.

Compound `CCCCOc1nc(N)c2nc(O)n(Cc3ccc(Oc4ccc(CNC5CCCC5)cc4)nc3)c2n1` showed an EC50 of 1.6 nM.

Compound `CCCCOc1nc(N)c2nc(O)n(Cc3ccc(Oc4ccc(CNC5COC5)cc4)cc3)c2n1` came in with an EC50 of 1.7 nM.

With `CCCCOc1nc(N)c2nc(O)n(Cc3ccc(Nc4ccc(CNCCS(C)(=O)=O)cc4)nc3)c2n1`, the EC50 stood at 0.374 nM.

Regarding `CCCCOc1nc(N)c2nc(O)n(Cc3ccc(Oc4ccc(CN5CCOCC5)cc4)c(F)c3)c2n1`, the 50% effective concentration (EC50) is 3.9 nM.

Turning to `CCCCOc1nc(N)c2nc(O)n(Cc3cccc(Oc4cccc(CNC5COC5)c4)c3)c2n1`, the 50% effective concentration (EC50) was determined as 403 nM.

As for `CCCCOc1nc(N)c2nc(O)n(Cc3cccc(Oc4cccc(CNC5CC(F)(F)C5)c4)c3)c2n1`, the 50% effective concentration (EC50) is 525 nM.

As for `CCCCOc1nc(N)c2nc(O)n(Cc3ccc(Oc4ccc(CNC5CC(F)(F)C5)cc4)nc3)c2n1`, it took 1.3 nM to reach a half-maximal effect (EC50).

Take `CCCCOc1nc(N)c2nc(O)n(Cc3ccc(Oc4ccc(CNCc5ccccc5)cc4)nc3)c2n1`: it took 5.3 nM to reach a half-maximal effect (EC50).

As for `CCCCOc1nc(N)c2nc(O)n(Cc3ccc(Oc4ccc(CNC5CC5)cc4)cc3)c2n1`, the EC50 was determined as 2.1 nM.

Turning to `CCCCOc1nc(N)c2nc(O)n(Cc3ccc(Oc4ccc(CNCCS(C)(=O)=O)cc4)nc3)c2n1`, the EC50 was 1.8 nM.

Compound `CCCCOc1nc(N)c2nc(O)n(Cc3ccc(Oc4cccc(CNC5CCC5)n4)cc3)c2n1` showed an EC50 of 2.51 nM.

For `CCCCOc1nc(N)c2nc(O)n(Cc3ccc(Oc4ccc(CNC(C)C)cc4)nc3)c2n1`, a half-maximal response (EC50) required 1.1 nM.

`CCCCOc1nc(N)c2nc(O)n(Cc3ccc(Oc4ccc(CNCCO)cc4)cc3)c2n1` returned an EC50 of 1.4 nM.

As for `CCCCOc1nc(N)c2nc(O)n(Cc3ccc(Nc4ccc(CNCC(C)(C)O)cc4)nc3)c2n1`, the midpoint of the response, the EC50, lay at 3.2 nM.

`CCCCOc1nc(N)c2nc(O)n(Cc3ccc(Nc4ccc(CNCC(C)C)cc4)nc3)c2n1` displayed an EC50 of 7.5 nM.

In turn, `CCCCOc1nc(N)c2nc(O)n(Cc3ccc(Nc4ccc(CNCCOC)cc4)nc3)c2n1` yielded a concentration for a half-maximal effect (EC50) of 1.19 nM.

Turning to `CCCCOc1nc(N)c2nc(O)n(Cc3cccc(Oc4cccc(CNCCO)c4)c3)c2n1`, the EC50 came to 375 nM.

On to `CCCCOc1nc(N)c2nc(O)n(Cc3ccc(Nc4ccc(CNC5CCC5)cc4)nc3)c2n1`, for which the EC50 is 1.23 nM.

The compound `CCCCOc1nc(N)c2nc(O)n(Cc3ccc(Nc4ccc(CNC5CCOCC5)cc4)nc3)c2n1` displayed a 50% effective concentration (EC50) of 4.3 nM.

In the case of `CCCCOc1nc(N)c2nc(O)n(Cc3ccc(Oc4ccc(CNCC5CC5)cc4)nc3)c2n1`, the EC50 turned out to be 1.1 nM.

As for `CCCCOc1nc(N)c2nc(O)n(Cc3ccc(Oc4ccc(CNC5CCC5)cc4)c(F)c3)c2n1`, the midpoint of the response, the EC50, lay at 1.38 nM.

`CCCCOc1nc(N)c2nc(O)n(Cc3ccc(Oc4ccc(CNC5C6CC5C6)cc4)nc3)c2n1` (stereo not drawn) came in with an EC50 of 1.3 nM.

`CCCCOc1nc(N)c2nc(O)n(Cc3ccc(Oc4ccc(CNCC(C)C)cc4)nc3)c2n1` registered a concentration for a half-maximal effect (EC50) of 0.54 nM.

On to `CCCCOc1nc(N)c2nc(O)n(Cc3ccc(Nc4ccc(CN5CCN(C)CC5)cc4)nc3)c2n1`, for which the half-maximal effective concentration (EC50) came to 4.2 nM.

The compound `CCCCOc1nc(N)c2nc(O)n(Cc3ccc(Oc4ccc(CNCCOC)nc4)nc3)c2n1` showed an EC50 of 0.96 nM.

Consider `CCCCOc1nc(N)c2nc(O)n(Cc3ccc(Oc4ccc(CNCCO)cc4)c(F)c3)c2n1`, for which the EC50 is 0.46 nM.

In turn, `CCCCOc1nc(N)c2nc(O)n(Cc3ccc(Oc4cccc(CNC5COC5)n4)cc3)c2n1` showed a concentration giving a half-maximal response (EC50) of 4.27 nM.

On to `CCCCOc1nc(N)c2nc(O)n(Cc3ccc(Oc4ccc(CNC5CCC5)nc4)nc3)c2n1`, for which the response was half-maximal at 2.07 nM (EC50).

Compound `CCCCOc1nc(N)c2nc(O)n(Cc3ccc(Oc4ccc(CNC5CCC5)cc4)cc3)c2n1` returned a half-maximal effective concentration (EC50) of 2.6 nM.

`CCCCOc1nc(N)c2nc(O)n(Cc3ccc(Oc4ccc(CNCC(F)F)cc4)c(F)c3)c2n1` showed an EC50 of 1.8 nM.

These data come from ChEMBL document CHEMBL5727449, “Toll-like receptor 7 (TLR7) agonists having heteroatom-linked aromatic moieties, conjugates thereof, and methods and uses therefor” (2019).
